Test results published in patent US20190211024A1 (priority 2016, published 2019).
Where “and” joins values, the source holds several entries; their conditions need not be identical. Identical values can stand only once. Counter-ions that a name gives are not always drawn.

Tested on: influenza virus A/California/07/09 (H1N1) pdm09
Parameters: species or system mice
Details: mouse, in vivo

SMILES	Time after infection within which the drug must be administered for greatest efficacy [h]	Mice rescued from infection [%]	Index of protection % (100 mg/kg/day, dihydrate)	AST (average life span of animals) (po, 100 mg/kg/day) [cyr.]	Mortality by day: 7 (po, 100 mg/kg/day)	Mortality by day: 8 (po, 100 mg/kg/day)	Mortality by day: 10 (po, 100 mg/kg/day)	Mortality, % (po, 100 mg/kg/day) [%]
CCOC(=O)C1=C[C@@H](OC(CC)CC)[C@H](NC(C)=O)[C@@H](N)C1 [Tamiflu]	≤ 24							
CSc1nc2[nH]nc([N+](=O)[O-])c(=O)n2n1 [Triazavirin, sodium salt of 2-methylthio-6-nitro-1,2,4-triazolo[5,1-c]1,2,4-triazine-7-one, dihydrate]		80	63% and 62.5%	13.7	1	1	1	20.0
